Data set [1] is described as follows: NO release kinetics of 500 μM solutions (Sievers 280i Nitric Oxide Analyzer). Format: physicochemical. The settings on record: 500 μM in PBS (pH 7.4) with EDTA, 37° C., 4 h. Here is the method: (§1) Real time NO release was measured using a Sievers 280i NOA (Nitric Oxide Analyzer). Polymer films containing SNAPicillin or SNAP were immersed in amber reaction vessels containing PBS (pH 7.4) with 100 μM EDTA to chelate any metal ion contaminants within the buffer. Solutions were continuously purged with a nitrogen sweep gas and bubbler to carry the NO from the solution directly to the NOA. In a separate NO releasing study, solutions containing 500 μM of either SNAPicillin or SNAP in PBS with EDTA were also tested under physiological conditions to obtain the stabilized NO release profile to compare passive release kinetics.
The NO release of the synthesized SNAPicillin was compared to pure SNAP by dissolving equimolar (500 μM) amounts of each into separate solutions of PBS (pH 7.4) containing 0.01 mM EDTA and placing them in an amber reaction vial submerged within a water bath at 37° C. while NO release was monitored in real time. Nitrogen gas was used to continuously purge the solution to examine the stabilized, passive release under these conditions. […] Although equimolar amounts of each component were used, the RSNO component on the SNAPicillin appears to be less reactive when compared to pure crystalline SNAP under physiological conditions.

A further data set concerns S. aureus. The data set can be described thus: Zone of inhibition assay (agar diffusion) of blended CarboSil films. Format: cell-based, Staphylococcus aureus (ATCC 6538). Particulars: 8 mm diameter; for ZOI values against S. aureus: overnight at 37° C. Here is the method:
Zone of inhibition (ZOI) testing was done on polymer films containing the same composition of either ampicillin, SNAP, or SNAPicillin used in the leachate and NOA studies. A standard agar diffusion protocol was followed and tested against S. aureus. A single colony of bacterium was suspended into LB and incubated at 37° C. for 14 h while being rotated at 150 rpm. The optical density of each bacterial culture was then measured at 600 nm using a UV-Vis spectrophotometer. The observed optical density was adjusted to 1×10^7 colony forming units per mL using a standard calibration curve of each corresponding bacteria. A sterile cotton swab was then used to dip into each culture media and spread onto premade LB-agar petri dishes. The polymer films of either ampicillin, SNAP, SNAPicillin, along with controls (diameter: 8 mm, thickness: 200 μm) were then placed on top of the petri dishes and allowed to incubate overnight at 37° C. The ZOI was then measured and compared the following day to observe the antimicrobial effects of synthesized SNAPicillin molecule within a hydrophobic matrix.
A significant advantage of using targeted antibiotics over NO releasing polymers is seen in its ability to prevent bacteria growth. […] To ensure the SNAP attachment to ampicillin was not interfering with this targeted potency, a zone of inhibition (ZOI) test against S. aureus was done. […] This trend has been seen in the past with NO releasing hydrophobic polymers, where the ZOI is extremely limited beyond the interface of the polymer itself.^32
The characterization of covalent attachment of SNAP was verified through FTIR (Fourier Transform Infrared Spectroscopy) and NMR (Nuclear Magnetic Resonance Spectroscopy) and its NO releasing characteristics were compared to pure, unmodified SNAP. The combination of both NO and ampicillin in one unique compound allows for the dispersal of biofilms while making them more susceptible to the antibiotic moiety. […]

The test system of data set [2] is 48 h old preformed S. aureus biofilms. Briefly: Biofilm dispersal assay on CarboSil polymer films. The data set is classed as cell-based, Staphylococcus aureus (ATCC 6538). The settings on record: for reduction in planktonic bacteria in solution: bacteria shed from 48 h S. aureus biofilm; for inhibition at 500 µM: Staphylococcus aureus, read-out: reduction of viable bacteria adhered on the films (biofilm). Here is the method:
Biofilms were grown for 48 h on circular CarboSil polymer films fabricated with a surface area of 1 cm^2. Solutions of S. aureus were prepared by placing one colony of bacteria in Luria Broth and incubated at 37° C. until the solution reached approximately 10^6 to 10^8 CFU mL^−1. Each polymer film was suspended in 2 mL of the bacteria solution and the solution was replenished with a fresh bacteria solution at 24 h of incubation. For the duration of the study the samples were incubated on a shaker at 150 rpms. After 48 h, the films were removed from the bacteria solutions and each film was gently rinsed with 5 ml of sterile PBS to remove any planktonic bacteria. The films were next incubated with 1 mL their specified test solutions and each solution type was tested at n=4. Each test solution was prepared with sterilized PBS and calculated to contain either 500 μM of ampicillin, SNAP, or SNAPicillin. After 24 h, the polymer films were removed from the test solutions, gently rinsed with PBS to remove planktonic bacteria, and homogenized in sterile PBS to remove any viable bacteria from the biofilm. The collected bacteria were serially diluted, plated on LB agar, and incubated for 18 h to achieve countable CFUs for comparison. A similar procedure was then done for the planktonic bacteria suspended in the solution of the incubated films to observe viable bacteria that shed from the potentially dispersed biofilms.
While NO release from SNAP may have difficulties diffusing through agar for disk diffusion testing, it is extremely potent at dispersing biofilms. […] The polymer films were then immersed into solutions containing either ampicillin, SNAP, or SNAPicillin at a concentration of 500 μM and the adhered bacteria remaining on the film as well as the planktonic bacteria within the solutions were observed (FIGS. 7 and 8).

The nature of data set [3]: NO release from blended CarboSil polymer films over 7 days and NO donor remaining (UV-VIS). The data set is classed as physicochemical. The settings on record: for NO donor remaining within the CarboSil polymer films: 168 h. The method, then:
as §1
A separate NO release study was also done by physically blending equimolar amounts into solutions of CarboSil, and solvent casting a thin polymer film to be analyzed. Since polymer films blended with SNAP are a common strategy to create a surface with controlled, localized NO release, a comparison of NO release was done using SNAPicillin containing polymer films to examine its potential as an alternative novel NO donor. The fabricated films were placed in PBS (pH 7.4) containing 0.01 mM EDTA at 37° C. to observe the real time NO releasing kinetics. […] This is contrary to the pure solutions that were previously placed under physiological conditions, where SNAP was able to have a higher initial release. The difference is most likely is due to the leaching rate of either SNAP or SNAPicillin from a hydrophobic polymer matrix.
The amount of NO donor remaining in the films was also quantified using UV-VIS after this time period to examine the potential release beyond the recorded 7 days. […] As mentioned previously, due to the larger molecular weight of SNAPicillin, it was able to stay within the CarboSil matrix for a longer period of time when compared to SNAP blended films. This further emphasizes the versatility of the SNAPicillin donor as a possible RSNO donor substitute for NO releasing polymers that require sustained or controlled release kinetics with the additional antimicrobial functionality.

Data set [4] in a line: SNAP leachate from blended CarboSil films in PBS (UV-vis absorbance at 340 nm). Format: physicochemical. The settings on record: equimolar blend in CarboSil films, PBS at 37° C., end of 4 day study. Here is the method: Leaching of SNAPicillin and SNAP was done by first blending equimolar amounts of the corresponding chemical (33.33 μmol mL^−1) into solutions of CarboSil dissolved in THF (50 mg mL^−1) and subsequently cast into Teflon molds to dry overnight. The dried films were then weighed and measured before being submerged into PBS. Quantification of SNAP leaching into solution was done by measuring absorbance at 340 nm via UV-vis analysis.
(§2) One issue holding back using the direct administration of NO donors as an effective therapeutic is its short half-life. To address this, a common method for controlling and directing the NO release of a donor in a localized and targeted area is to encapsulate it within a polymer. This strategy is also used for antibiotics and antiseptics as well, as catheters have been fabricated with physically blended drugs to combat and prevent infection.^28-30 One key advantage for modifying the ampicillin with SNAP was its change in solubility. A large majority of antibiotics are not soluble in organic solvents, limiting its ability to evenly disperse within polymer matrices when coated or impregnated within the bulk material. […] The polymer films were measured and weighed before being immersed in PBS at 37° C. and were periodically taken out to examine either SNAP or ampicillin leachates (FIGS. 3A-3B). […]

The test system of a further data set is biofilms. The settings on record: as low as; cited from earlier work.
A short description of data set [5]: Ampicillin leachate from blended CarboSil films in PBS with EDTA (alkaline potassium permanganate oxidation). The data set is classed as physicochemical. Particulars: equimolar blend in CarboSil films, PBS at 37° C., 4 days.
Text: Ampicillin eachate from CarboSil films was done by making polymer solutions with equimolar amounts of SNAPicillin and ampicillin. Ampicillin was first dissolve in a small amount of methanol before being added to CarboSil in THF solutions and then solvent casted into Teflon molds. Films were then weighed and immersed in PBS containing EDTA. Quantification of ampicillin leaching into solution was done via the oxidation reaction with alkaline potassium permanganate following a previously established protocol.^24
as §2, with “solubility.” for “solubility. A large majority of antibiotics are not soluble in organic solvents, limiting its ability to evenly disperse within polymer matrices when coated or impregnated within the bulk material.”

Setting [6] is: 500 μM solution in PBS, 24 h treatment.
The mark [7] stands for this setting: 500 μM solution in PBS, 24 h treatment, 48 h S. aureus biofilm.

Each structure is given as a SMILES string. Read-outs that look alike come from different tables or passages of the source.

For `CC(=O)N[C@H](C(=O)O)C(C)(C)SN=O` (racemic) [SNAP, S-nitroso-N-acetylpenicillamine], the “stabilized passive NO release rate of solutions” value in data set [1] is listed as “slightly higher rate of NO release than SNAPicillin solutions”. Also, the “zone of inhibition against S. aureus, in words” value in the data set on S. aureus is given as “only killing bacteria directly in contact with the film”. Moreover, the “reduction in planktonic bacteria in solution” value (from here on “reduction … in solution”) in data set [2] (setting [6]) was 96.2±1.15%. In data set [2], the inhibition at 500 µM came out at 99.2 ± 0.762%. Moreover, the “NO donor remaining within the CarboSil polymer films” value in data set [3] (pH 7.4) was 0.25±0.17%. In addition, the “cumulative leaching from films, SNAP leaching study” value in data set [4] came to 1.307±0.536 μmol cm-2.
For `[N]=O` [NO, nitric oxide], the “concentration of NO able to trigger the biofilm dispersal mechanism” value in the data set with biofilms is given as 450 pM.
Consider `CC(=O)NC(C(=O)NC(C(=O)NC1C(=O)N2C1SC(C)(C)C2C(=O)O)c1ccccc1)C(C)(C)SN=O` (stereo not drawn) [SNAPicillin], for which the “ZOI values against S. aureus” value with S. aureus worked out at 34.0±1.40 mm. Moreover, in data set [2] (setting [7]), the “reduction of viable bacteria adhered on the films (biofilm)” value turned out to be 99.9±0.18%. For the same molecule, the “reduction … in solution” value in data set [2] (setting [6]) is 99.5±0.264%. Further, in data set [3], the “NO donor remaining within the CarboSil polymer films” value stood at 21.9±1.72%. In addition, the “NO flux from blended films” value in data set [3] (equimolar blend in CarboSil films, PBS (pH 7.4) with EDTA, 37° C., 7 days) is reported as “higher NO fluxes at every time point when compared to SNAP”. For the same molecule, in data set [4], the “cumulative leaching from films, SNAP leaching study” value was determined as 0.051±0.10 μmol cm-2. Also, the “cumulative leaching from films, ampicillin study” value in data set [5] worked out at 0.043±0.003 μmol cm^−2.
Turning to `CC1(C)S[C@@H]2[C@H](NC(=O)[C@H](N)c3ccccc3)C(=O)N2[C@H]1C(=O)O` [ampicillin], the “ZOI values against S. aureus” value in the data set on S. aureus was 34.5±1.50 mm. Moreover, the “reduction … in solution” value in data set [2] (setting [6]) came to 90.0±1.13%. For the same molecule, the inhibition at 500 µM in data set [2] (setting [7]) worked out at 28.9 ± 5.89%. Also, the “cumulative leaching from films, ampicillin study” value in data set [5] turned out to be 0.087±0.003 μmol cm^−2.

Source of the values: patent US11220516B2, “Nitric oxide-releasing antibiotics, methods of making, and methods of use” (University of Georgia Research Foundation, Inc., priority 2019, dated 2022).
